Measured values: paper PMC3390202 (Biochemistry, 2011)

Target: rhodopsin (N2C,D282C and N2C,E113Q,D282C mutants) (Bos taurus, UniProt P02699, N2C/E113Q/D282C)
Experiment: UV-visible absorption
Format: binding
Conditions: covalent; in the dark; inverse agonist chromophore; DDM, Hepes pH 7.5

**Q.** For `CC1=C(/C=C/C(C)=C/C=C\C(C)=C\C=O)C(C)(C)CCC1` [11-cis-retinal], which “UV-visible absorption; 1D4-Sepharose copurification with transducin” value is on record?
**A.** The value was “Binding of 11-cis-retinal forces the protein into the inactive state”.
